Results reported in patent publication US20240398824A1, “Inhibition Of Rip Kinases For Treating Neurodegenerative Disorders” (The Johns Hopkins University, priority 2018, published 2024).

Test system: BV-2 microglia
Assay: Real-time PCR of C1q, IL-6 and TNFα in AβO-activated BV-2 microglia
Type: cell-based
Set-up: key to mRNA levels of C1q / mRNA levels of IL-6 / mRNA levels of TNFα: relative expression normalized to GAPDH by 2^-ΔΔCt; PBS = 1
Settings: for mRNA levels of IL-6 / mRNA levels of C1q / mRNA levels of TNFα: BV-2 microglia preincubated 1 h with inhibitor 1 μM, then AβO 5 μM 4 h, ±SD; for mRNA levels of IL-6: PBS = 1 ± 0.08, Abeta alone 12.53 ± 0.59; for mRNA levels of C1q: PBS = 1 ± 0.13, Abeta alone 3.7 ± 0.06; for mRNA levels of TNFα: PBS = 1 ± 0.16, Abeta alone 16.19 ± 3.21; for microglial activation / release of multiple inflammatory mediators including C1q, IL-6 and TNFα: inhibitor 1 μM pretreatment, AβO 5 μM, in words
Description: Synthetic Abeta1-42 oligomers were generated as previously described (PMID: 27834631). Hydroxyfluroisopropanol (HFIP)-treated synthethic Abeta1-42 peptides (rPeptide, Bogart, GA, USA) were dissolved in dimethylsulfoxide (DMSO) and further diluted in phosphate-buffered saline (PBS) to obtain a 250 μM stock solution. The stock solution was incubated at 4° C. for at least 24 hours and stored at −80° C. until use. Before use, the solution was centrifuged at 12,000 g for 10 minutes and the supernatant was used as an oligomeric Aβ.
BV-2 microglial cells were cultured in DMEM media. 10^6 of BV-2 microglia in 6 well plate were treated with 2.5 μM of Abeta for 4 hrs. Total RNA from cultured cells was extracted with a RNA isolation kit (Qiagen, Valencia, CA, USA) following manufacturer's instructions. RNA concentration was measured spectrophotometrically using a NanoDrop 2000 (Thermo scientific). Subsequently, 2 μg of total RNA was reverse transcribed to cDNA using the High-Capacity cDNA Reverse Transcription System (Life Technologies, Grand Island, NY, USA). Comparative qPCR was performed using fast SYBR Green Master Mix (Life Technologies) and steponeplus real-time pcr system (Applied Biosystems, Foster City, CA, USA). The expression levels of target genes were normalized to the expression of GAPDH and calculated based on the comparative cycle threshold Ct method^−ΔΔ(2) Ct. (n=3)
To examine the effect of RIPK2 inhibition, 10^6 of BV-2 microglia in 6 well plate were preincubated with DMSO, GSK583 (1 μM, Medchemexpress), OD361 (1 μM, Calbiochem), or Sorafenib (1 μM) for one hour. For mRNA analysis, 5 μM of AβO was treated additional for 4 hours.

| Compound | mRNA levels of IL-6 | mRNA levels of C1q | mRNA levels of TNFα | microglial activation | release of multiple inflammatory mediators including C1q, IL-6 and TNFα |
| --- | --- | --- | --- | --- | --- |
| CNC(=O)c1cc(Oc2ccc(NC(=O)Nc3ccc(Cl)c(C(F)(F)F)c3)cc2)ccn1 [Sorafenib] | 7.13 ± 0.71 | 3.3 ± 0.09 | 9.69 ± 0.47 | blocked microglial activation | significantly reduced |
| Clc1cc2cc(c1)-c1cnn3c1NC(=NCCOCCO2)C=C3 [OD36, 6-Chloro-10,11,14,17-tetrahydro-13H-1,16-etheno-4,8-metheno-1H-pyrazolo[3,4-g][1,14,4,6]dioxadiazacyclohexadecine] | 7.64 ± 0.48 | 0.85 ± 0.12 | 5.85 ± 0.03 | blocked microglial activation | significantly reduced |
